Here are results for 23 compounds from ChEMBL document CHEMBL6153034, “Synthesis of dolutegravir derivatives modified by 1,2,3-triazole structure and their anti-inflammatory activity in LPS-induced BV2 cells” (Bioorg Med Chem Lett, 2025).

Data set [1] relates to BV-2. Nature of the data set: Antiinflammatory activity in LPS induced mouse BV-2 cells assessed as NO production at 1 uM by Griess reagent based assay relative to control. (In general: The Griess reaction detects nitrite, a stable product of nitric oxide.)
The subject of data set [2] is BV-2. Nature of the data set: Antiinflammatory activity in LPS induced mouse BV-2 cells assessed as NO production at 10 uM by Griess reagent based assay relative to control.
Data set [3] is described as follows: Cytotoxicity against mouse BV-2 cells assessed as cell viability at 1 uM by MTT assay relative to control. The data set is classed as toxicity, cell-based. The following applies: read-out: Activity. In general terms: Tetrazolium dyes change colour on reduction, which living cells bring about.
A short description of data set [4]: Cytotoxicity against mouse BV-2 cells assessed as cell viability at 10 uM by MTT assay relative to control. Particulars: read-out: Activity. The format is toxicity, cell-based.

In the case of `COc1ccccc1-n1cc(-c2ccccc2NC(=O)c2cn3c(c(OC)c2=O)C(=O)N2[C@H](C)CCO[C@H]2C3)nn1`, the level, % of control at 1 µM with BV-2 [1] came out at 87.1%. Moreover, the level, % of control at 10 µM with BV-2 [2] was found to be 70.3%. The viability at 1 µM in data set [3] was determined as 102%. Also, the viability at 10 µM in data set [4] stood at 93.5%.
On to `COc1c2n(cc(C(=O)Nc3cccc(-c4cn(-c5ccccc5F)nn4)c3)c1=O)C[C@@H]1OCC[C@@H](C)N1C2=O`, for which the level, % of control at 1 µM in the data set with BV-2 [1] is 91.7%. In the data set with BV-2 [2], the level, % of control at 10 µM turned out to be 53.7%. Further, in data set [3], the viability at 1 µM stood at 103%. The viability at 10 µM in data set [4] was found to be 68.6%.
Taken in the same sequence, the figures for `COc1c2n(cc(C(=O)Nc3ccccc3-c3cn(-c4ccc(C(F)(F)F)cc4)nn3)c1=O)C[C@@H]1OCC[C@@H](C)N1C2=O` were 81%, 84.7%, 104% and 96.3%.
`COc1c2n(cc(C(=O)Nc3ccc(-c4cn(-c5ccccc5Cl)nn4)cc3)c1=O)C[C@@H]1OCC[C@@H](C)N1C2=O`: the level, % of control at 1 µM in the data set with BV-2 [1] was 98.8%. For the same compound, the level, % of control at 10 µM with BV-2 [2] came to 79.6%. The viability at 1 µM in data set [3] is 100%. The viability at 10 µM in data set [4] amounted to 102%.
Consider `COc1c2n(cc(C(=O)Nc3ccccc3-c3cn(-c4ccccc4I)nn3)c1=O)C[C@@H]1OCC[C@@H](C)N1C2=O`, for which, in the data set on BV-2 [1], the level, % of control at 1 µM was found to be 107%. Also, the level, % of control at 10 µM in the data set with BV-2 [2] stood at 56.3%. For the same compound, the viability at 1 µM in data set [3] is 96.7%. For the same compound, the viability at 10 µM in data set [4] was found to be 65.8%.
Taken in the same sequence, the figures for `COc1c2n(cc(C(=O)Nc3cccc(-c4cn(-c5cccc(C(F)(F)F)c5)nn4)c3)c1=O)C[C@H]1OC[C@H](C)N1C2=O` were 104%, 78.4%, 90.7% and 43.6%.
Taken in the same sequence, the figures for `COc1c2n(cc(C(=O)Nc3ccc(-c4cn(-c5c(C)cc(C)cc5C)nn4)cc3)c1=O)C[C@@H]1OCC[C@@H](C)N1C2=O` were 98.9%, 78.6%, 106% and 114%.
Taken in the same sequence, the figures for `COc1ccccc1-n1cc(-c2cccc(NC(=O)c3cn4c(c(OC)c3=O)C(=O)N3[C@@H](C)CO[C@@H]3C4)c2)nn1` were 96.5%, 68%, 94.1% and 50.4%.
In the case of `COc1c2n(cc(C(=O)Nc3ccc(-c4cn(-c5ccccc5C(F)(F)F)nn4)cc3)c1=O)C[C@@H]1OCC[C@@H](C)N1C2=O`, the level, % of control at 1 µM in the data set with BV-2 [1] came out at 109%. In addition, the level, % of control at 10 µM in the data set on BV-2 [2] is 91.1%. For the same compound, in data set [3], the viability at 1 µM came to 103%. Moreover, the viability at 10 µM in data set [4] amounted to 103%.
On to `C[C@@H]1CCO[C@H]2Cn3cc(C(=O)NCc4ccc(F)cc4F)c(=O)c(O)c3C(=O)N12` [DOLUTEGRAVIR], for which the level, % of control at 1 µM in the data set with BV-2 [1] amounted to 96%. For the same compound, in the data set with BV-2 [2], the level, % of control at 10 µM is 51.2%. The viability at 1 µM in data set [3] was found to be 97.5%. The viability at 10 µM in data set [4] was 77.6%.
For `COc1c2n(cc(C(=O)Nc3cccc(-c4cn(-c5cccc(C(F)(F)F)c5)nn4)c3)c1=O)C[C@@H]1OCC[C@@H](C)N1C2=O`, in that order: 99.2%, 2.3%, 47.1% and 16.2%.
Taken in the same sequence, the figures for `COc1c2n(cc(C(=O)Nc3ccc(-c4cn(-c5cc(C(F)(F)F)ccc5C(F)(F)F)nn4)cc3)c1=O)C[C@@H]1OCC[C@@H](C)N1C2=O` were 83%, 69%, 108% and 109%.
Taken in the same sequence, the figures for `COc1c2n(cc(C(=O)Nc3ccc(-c4cn(-c5ccccc5)nn4)cc3)c1=O)C[C@@H]1OCC[C@@H](C)N1C2=O` were 88.8%, 91.4%, 104% and 70.2%.
`COc1c2n(cc(C(=O)Nc3ccccc3-c3cn(-c4ccccc4Cl)nn3)c1=O)C[C@@H]1OCC[C@@H](C)N1C2=O`: in the data set with BV-2 [1], the level, % of control at 1 µM was determined as 92.4%. The level, % of control at 10 µM in the data set with BV-2 [2] came to 65.9%. The viability at 1 µM in data set [3] worked out at 97.9%. Besides, the viability at 10 µM in data set [4] came out at 98.3%.
Taken in the same sequence, the figures for `COc1c2n(cc(C(=O)Nc3cccc(-c4cn(-c5ccc(C(F)(F)F)cc5)nn4)c3)c1=O)C[C@@H]1OCC[C@@H](C)N1C2=O` were 83.7%, 48.3%, 71.5% and 56.3%.
In the case of `CCc1ccccc1-n1cc(-c2ccccc2NC(=O)c2cn3c(c(OC)c2=O)C(=O)N2[C@H](C)CCO[C@H]2C3)nn1`, the level, % of control at 1 µM in the data set with BV-2 [1] stood at 86.7%. Besides, in the data set with BV-2 [2], the level, % of control at 10 µM was determined as 76.3%. In addition, in data set [3], the viability at 1 µM stood at 111%. Also, in data set [4], the viability at 10 µM amounted to 94.7%.
For `COc1c2n(cc(C(=O)Nc3cccc(-c4cn(-c5ccccc5)nn4)c3)c1=O)C[C@H]1OC[C@H](C)N1C2=O`, in that order: 127%, 132%, 111% and 65.6%.
Regarding `COc1c2n(cc(C(=O)Nc3cccc(-c4cn(-c5cc(C(F)(F)F)ccc5C(F)(F)F)nn4)c3)c1=O)C[C@@H]1OCC[C@@H](C)N1C2=O`, the level, % of control at 1 µM in the data set with BV-2 [1] is 80.8%. In addition, the level, % of control at 10 µM with BV-2 [2] is 43.6%. For the same compound, the viability at 1 µM in data set [3] is 104%. Besides, the viability at 10 µM in data set [4] came out at 42%.
Take `COc1c2n(cc(C(=O)Nc3cccc(-c4cn(-c5cc(C(F)(F)F)cc(C(F)(F)F)c5)nn4)c3)c1=O)C[C@@H]1OCC[C@@H](C)N1C2=O`: the level, % of control at 1 µM with BV-2 [1] amounted to 81.6%. Besides, the level, % of control at 10 µM in the data set with BV-2 [2] was found to be 71.1%. In addition, the viability at 1 µM in data set [3] was 108%. Further, in data set [4], the viability at 10 µM came to 71.3%.
In the case of `CCc1ccccc1-n1cc(-c2cccc(NC(=O)c3cn4c(c(OC)c3=O)C(=O)N3[C@@H](C)CO[C@@H]3C4)c2)nn1`, the level, % of control at 1 µM in the data set with BV-2 [1] worked out at 107%. For the same compound, the level, % of control at 10 µM in the data set on BV-2 [2] was 102%. Moreover, the viability at 1 µM in data set [3] came out at 99.3%. Besides, the viability at 10 µM in data set [4] amounted to 46.1%.
For the compound `COc1c2n(cc(C(=O)Nc3cccc(-c4cn(-c5ccccc5Cl)nn4)c3)c1=O)C[C@H]1OC[C@H](C)N1C2=O`, the level, % of control at 1 µM in the data set on BV-2 [1] came to 106%. For the same compound, the level, % of control at 10 µM in the data set on BV-2 [2] was found to be 59.4%. Further, the viability at 1 µM in data set [3] stood at 90.7%. The viability at 10 µM in data set [4] amounted to 43.6%.
As for `COc1c2n(cc(C(=O)Nc3ccc(-c4cn(-c5ccccc5F)nn4)cc3)c1=O)C[C@@H]1OCC[C@@H](C)N1C2=O`, in the data set on BV-2 [1], the level, % of control at 1 µM is 98.5%. For the same compound, in the data set with BV-2 [2], the level, % of control at 10 µM stood at 87.2%. Also, the viability at 1 µM in data set [3] amounted to 101%. In data set [4], the viability at 10 µM is 83%.
For `C[C@@H]1C[C@H]2[C@@H]3CCC4=CC(=O)C=C[C@]4(C)[C@@]3(F)[C@@H](O)C[C@]2(C)[C@@]1(O)C(=O)CO` [DEXAMETHASONE], the level, % of control at 10 µM in the data set on BV-2 [2] is 65%.
